Measurements as given in patent US7138361B2, “Herbicidal heterocycles” (E. I. du Pont de Nemours and Company, priority 2000, dated 2006).

Assays:
Format in all cases: in vivo
[1] = system: Nightshade; assay: Test C preemergence
[2] = system: Sunflower; assay: Test C preemergence
[3] = system: Surinam grass (Brachiaria decumbens); assay: Test C preemergence
Method in brief: (§1)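 Plants held in greenhouse for 12–14 days post-application are scored by eye against controls on a 0–100 control scale. Application timing: preemergence on sown seed, or postemergence on 2–18 cm plants.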

[4] = system: bermudagrass (Cynodon dactylon); assay: Test C preemergence
Method in brief: as §1

[5] = system: cocklebur (Xanthium strumarium); assay: Test C preemergence
Method in brief: as §1

[6] = system: corn (Zea mays); assay: Test C preemergence
Method in brief: as §1

[7] = system: crabgrass (Digitaria sanguinalis); assay: Test C preemergence
Method in brief: as §1

[8] = system: giant foxtail (Setaria faberii); assay: Test C preemergence
Method in brief: as §1

[9] = system: goosegrass (Eleusine indica); assay: Test C preemergence
Method in brief: as §1

[10] = system: johnsongrass (Sorghum halepense); assay: Test C preemergence
Method in brief: as §1

[11] = system: kochia (Kochia scoparia); assay: Test C preemergence
Method in brief: as §1

[12] = system: lambsquarters (Chenopodium album); assay: Test C preemergence
Method in brief: as §1

[13] = system: morningglory (Ipomoea hederacea); assay: Test C preemergence
Method in brief: as §1

[14] = system: pigweed (Amaranthus retroflexus); assay: Test C preemergence
Method in brief: as §1

[15] = system: soybean (Glycine max); assay: Test C preemergence
Method in brief: as §1

[16] = system: velvetleaf (Abutilon theophrasti); assay: Test C preemergence
Method in brief: as §1

[17] = system: woolly cupgrass (Eriochloa villosa); assay: Test C preemergence
Method in brief: as §1

[18] = system: yellow nutsedge (Cyperus esculentus); assay: Test C preemergence
Method in brief: as §1

[19] = system: barnyardgrass (Echinochloa crus-galli); assay: Test C flooded paddy test; conditions: for Barnyardgrass plant response rating: Flooded Paddy, scale 0 to 100, 0 no effect, 100 complete control; for Plant response rating, Barnyardgrass: flooded paddy test, scale 0 to 100 (0 no effect, 100 complete control)
Method in brief: (§2)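 Visual ratings (0 = no effect, 100 = complete control) were made 12–14 days after treatment, relative to greenhouse controls. Plants in the flooded paddy test were rice, smallflower flatsedge, duck salad and barnyardgrass, treated at the 2-leaf stage.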

[20] = system: duck salad (Heteranthera limosa); assay: Test C flooded paddy test; conditions: for Ducksalad plant response rating: Flooded Paddy, scale 0 to 100, 0 no effect, 100 complete control; for Plant response rating, Ducksalad: flooded paddy test, scale 0 to 100 (0 no effect, 100 complete control)
Method in brief: as §2

[21] = system: smallflower flatsedge (Cyperus difformis); assay: Test C flooded paddy test; conditions: for Flatsedge plant response rating: Flooded Paddy, scale 0 to 100, 0 no effect, 100 complete control; for Plant response rating, Flatsedge: flooded paddy test, scale 0 to 100 (0 no effect, 100 complete control)
Method in brief: as §2

[22] = system: Sunflower; assay: Test C preemergence; conditions: Rate 250 g/ha, visual evaluation after 12 to 14 days
[23] = Rate 62 g/ha, scale 0 to 100, 0 no effect, 100 complete control
[24] = Preemergence, Rate 500 g/ha, scale 0 to 100
[25] = preemergence, Rate 250 g/ha, visual evaluation after 12 to 14 days
[26] = preemergence, Rate 125 g/ha, scale 0 to 100, 0 no effect, 100 complete control

O=C1C(n2ccc(C3CCC3)n2)SCN1c1cccc(OC(F)(F)F)c1 (stereo not drawn) [Compound 38]
Plant response rating, Nightshade [1, 23]: 0
Plant response rating, Nightshade ([1]; Rate 125 g/ha, scale 0 to 100, 0 no effect, 100 complete control): 0
Plant response rating, Nightshade ([1]; Rate 500 g/ha, scale 0 to 100): 90
Plant response rating, Sunflower [2, 23]: 0
Plant response rating, Sunflower ([2]; Rate 500 g/ha, scale 0 to 100): 60
Plant response rating, Surinam grass [3, 24]: 90
Plant response rating, Surinam grass [3, 23]: 0
Plant response rating (0 to 100), Surinam grass [3, 25]: 0
Plant response rating, Surinam grass [3, 26]: 0
Plant response rating, Bermudagrass [4, 24]: 100
Plant response rating, Bermudagrass [4, 23]: 60
Plant response rating (0 to 100 where 0 is no effect and 100 is complete control), Bermudagrass [4, 25]: 100
Plant response rating, Bermudagrass [4, 26]: 90
Plant response rating, Cocklebur [5, 24]: 60
Plant response rating, Cocklebur [5, 23]: 0
Plant response rating (0 to 100), Cocklebur [5, 25]: 20
Plant response rating, Cocklebur [5, 26]: 0
Plant response rating, Corn [6, 24]: 0
Plant response rating, Corn [6, 23]: 0
Plant response rating (0 to 100), Corn [6, 25]: 0
Plant response rating, Corn [6, 26]: 0
Plant response rating, Crabgrass [7, 24]: 100
Plant response rating, Crabgrass [7, 23]: 90
Plant response rating (0 to 100), Crabgrass [7, 25]: 100
Plant response rating, Crabgrass [7, 26]: 100
Plant response rating, Foxtail, Giant [8, 24]: 100
Plant response rating, Foxtail, Giant [8, 23]: 80
Plant response rating (0 to 100), Foxtail, Giant [8, 25]: 100
Plant response rating, Foxtail, Giant [8, 26]: 0
Plant response rating, Goosegrass [9, 24]: 100
Plant response rating, Goosegrass [9, 23]: 80
Plant response rating (0 to 100), Goosegrass [9, 25]: 100
Plant response rating, Goosegrass [9, 26]: 90
Plant response rating, Johnsongrass [10, 24]: 90
Plant response rating, Johnsongrass [10, 23]: 40
Plant response rating (0 to 100), Johnsongrass [10, 25]: 90
Plant response rating, Johnsongrass [10, 26]: 50
Plant response rating, Kochia [11, 24]: 100
Plant response rating, Kochia [11, 23]: 30
Plant response rating (0 to 100), Kochia [11, 25]: 90
Plant response rating, Kochia [11, 26]: 70
Plant response rating, Lambsquarters [12, 24]: 100
Plant response rating, Lambsquarters [12, 23]: 90
Plant response rating (0 to 100), Lambsquarters [12, 25]: 100
Plant response rating, Lambsquarters [12, 26]: 100
Plant response rating, Morningglory [13, 24]: 0
Plant response rating (0 to 100), Morningglory [13, 25]: 0
Plant response rating, Morningglory [13, 26]: 0
Plant response rating, Pigweed [14, 24]: 30
Plant response rating, Pigweed [14, 23]: 0
Plant response rating (0 to 100), Pigweed [14, 25]: 0
Plant response rating, Pigweed [14, 26]: 0
Plant response rating, Soybean [15, 24]: 0
Plant response rating, Soybean [15, 23]: 0
Plant response rating (0 to 100), Soybean [15, 25]: 0
Plant response rating, Soybean [15, 26]: 0
Plant response rating, Velvetleaf [16, 24]: 20
Plant response rating, Velvetleaf [16, 23]: 0
Plant response rating (0 to 100), Velvetleaf [16, 25]: 20
Plant response rating, Velvetleaf [16, 26]: 0
Plant response rating, Cupgrass, Woolly [17, 24]: 90
Plant response rating, Cupgrass, Woolly [17, 23]: 0
Plant response rating (0 to 100), Cupgrass, Woolly [17, 25]: 0
Plant response rating, Cupgrass, Woolly [17, 26]: 0
Plant response rating, Nutsedge [18, 24]: 70
Plant response rating, Nutsedge [18, 23]: 0
Plant response rating (0 to 100), Nutsedge [18, 25]: 0
Plant response rating, Nutsedge [18, 26]: 0
Barnyardgrass plant response rating ([19]; Rate 250 g/ha): 100
Barnyardgrass plant response rating ([19]; Rate 500 g/ha): 100
Plant response rating, Barnyardgrass ([19]; Rate 62 g/ha): 100
Plant response rating, Barnyardgrass ([19]; Rate 125 g/ha): 100
Ducksalad plant response rating ([20]; Rate 250 g/ha): 90
Ducksalad plant response rating ([20]; Rate 500 g/ha): 80
Plant response rating, Ducksalad ([20]; Rate 62 g/ha): 50
Plant response rating, Ducksalad ([20]; Rate 125 g/ha): 90
Flatsedge plant response rating ([21]; Rate 250 g/ha): 100
Flatsedge plant response rating ([21]; Rate 500 g/ha): 100
Plant response rating, Flatsedge ([21]; Rate 62 g/ha): 100
Plant response rating, Flatsedge ([21]; Rate 125 g/ha): 100
Plant response rating (0 to 100), Sunflower [22]: 60
